Measured values published in patent US11015169B2, “Culture medium for pluripotent stem cells” (Kyoto University, priority 2014, dated 2021).

Assays:
Type in all cases: cell-based
[1] = test system: Human ES cell lines KhES-1; assay: Subculture of human ES cells in medium comprising a GSK3β inhibitor and a DYRK inhibitor, cell observation; settings: KhES-1, no feeder cells, vitronectin-N-coated dish; for maintenance of the ES cells (stability), among the GSK3β inhibitors: combined with DYRK inhibitor ID-8 500 nM, 1-azakenpaullone 750 nM, kenpaullone 500 nM
Experimental: 25 mL of a solution in which a powder DMEM/F-12 medium (D0547, produced by Sigma-Aldrich) had been diluted two-fold with water, 1.4 mL of 6% sodium hydrogen carbonate solution, 0.75 mL of 1 M HEPES solution, 0.045 mL of 0.23 M ascorbic acid solution, 0.9 ML of ITS (Insulin-Transferrin-Selenium: 1 mg/ml-0.55 mg/ml-0.7 μg/ml) solution (ITS-G 41400-045, produced by Life Technologies), and 16.905 mL of water were mixed to obtain 45 mL of basal medium (340 mOsm, pH 7.2 to 7.5).
A GSK3β inhibitor (1-azakenpaullone (A3734, produced by Sigma-Aldrich), kenpaullone (1094-1, produced by BioVision), CHIR99021 (1386, produced by Axon Medchem), or BIO (B1686, produced by Sigma-Aldrich)), and a DYRK inhibitor (ID-8 (11786, produced by Sigma-Aldrich), harmine (Ser. No. 10/010,324, produced by Cayman Chemical), an indirubin analog 716 (6i) (ACS Medicinal Chemistry Letters, 2013, vol. 4, no. 1, pp. 22-26), INDY (405273, produced by Merck Millipore Corporation), L41 (MR-00023, produced by AdipoGen), or TG003 (4336, produced by R&D Systems)) were each added singly or in combination to the basal medium to thereby obtain a medium. The following are final concentrations in the medium.
Human ES cell lines KhES-1 (provided by Riken BioResource Center) were subcultured in the above medium. More specific details are below. The following culture was performed in the absence of feeder cells in a dish (vitronectin-N-coated dish) in which coating treatment was performed overnight using 1 μg of vitronectin-N (A14700 produced by Life Technologies) per 1 cm^2 of the culture dish.
ES cell colonies cultured in accordance with a standard method using a general-purpose medium for human ES cells (20% knockout serum replacement (10828-028, produced by Life Technology), 4 ng/ml of FGF2 (100-18B, produced by Peprotech)/DMEM/F-12 medium (11330-032, produced by Life Technology)) were rinsed once with PBS. A dispase solution (10 mg/ml dispase (Ser. No. 17/105,041, produced by Life Technologies)/DMEM/F-12) was added thereto so as to cover the cells, followed by being left to stand for 5 minutes. […]

[2] = test system: Human ES cell lines KhES-1; assay: Fold increase of cells within 6 days without passage
Experimental: (§1) A medium further comprising an NFAT inhibitor (tacrolimus (FK-506) (1007965, produced by Cayman Chemical)), in addition to a GSK3β inhibitor (1-azakenpaullone or kenpaullone) and a DYRK inhibitor (ID-8), was prepared as in Example 1. Using this medium, subculture and cell observation were performed as in Example 1. Separately from this, passage P1 was performed using this medium, as in Example 1, followed by culturing for 6 days without performing passage. Thereafter, the number of the cells was counted in accordance with a standard method, and, based on the counted number of cells, how many times the number of the cells increased within 6 days was calculated.

[3] = test system: Human ES cell lines KhES-1; assay: Subculture and cell observation in medium further comprising an NFAT inhibitor; settings: tacrolimus added in addition to azakenpaullone and ID-8, FIG. 3A
Experimental: as §1

In the case of COc1ccc(-n2c(C)c([N+](=O)[O-])c3ccc(O)cc32)cc1 [ID-8], the “maintenance of the ES cells (stability), among the DYRK inhibitors” value ([1]; combined with 1-azakenpaullone 750 nM, ID-8 500 nM) was “most stable manner”.
In the case of O=C1Cc2c([nH]c3ccc(Br)cc23)-c2ncccc2N1 [1-azakenpaullone], the “maintenance of the ES cells (stability), among the GSK3β inhibitors” value [1] was “most stable manner” and the “cell growth (fold increase of the cells), comparison of GSK3β inhibitors” value ([2]; GSK3β inhibitor with ID-8 and tacrolimus, FIG. 3B) was “accelerates the cell growth more than kenpaullone”.
In the case of O=C1Cc2c([nH]c3ccc(Br)cc23)-c2ccccc2N1 [kenpaullone], the “maintenance of the ES cells (stability), among the GSK3β inhibitors” value [1] was “most stable manner”.
With C=CC[C@@H]1/C=C(\C)C[C@H](C)C[C@H](OC)[C@H]2O[C@@](O)(C(=O)C(=O)N3CCCC[C@H]3C(=O)O[C@H](/C(C)=C/[C@@H]3CC[C@@H](O)[C@H](OC)C3)[C@H](C)[C@@H](O)CC1=O)[C@H](C)C[C@@H]2OC [tacrolimus] the “maintenance of ES cells in an undifferentiated state” value [3] was “ES cells are maintained in an undifferentiated state” and the “cell growth (fold increase of the cells)” value ([2]; tacrolimus added in addition to azakenpaullone and ID-8, FIG. 3B) was “notably accelerated”.
